In this assay the test system is swine muscle cells. The assay is described as follows: Excipient testing in pigs: X-gal staining of muscle after IM injection of β galactosidase plasmid DNA with excipient. Type of assay: in vivo. Particulars: excipient combined with plasmid DNA containing a β galactosidase gene; conclusion. The method, then:
Solutions of sucrose (3-7%), DMSO (18-22%), Tween 80 (0.03-0.07%), or E. coli recombinant modified labile toxin (rmLT) (23-27 ug/dose) can be formulated at the desired final concentration in 150 mM sodium phosphate, pH 7.2, containing 1 mg/ml of the plasmid DNA of interest. Solutions can be assembled by dissolving the excipients and plasmid DNA in 150 mM sodium phosphate, pH 7.2 at the desired concentration. Alternatively, the preparations can be prepared as sub-solution, at twice their final concentration in 150 mM sodium phosphate, pH 7.2, and then mixed in equal volumes immediately prior to administration. The SEPA-DNA solution is prepared by adding 1 part of the respective DNA solution, at 5 mg/ml, to 4 parts SEPA.
Table 1 contains the scoring results of X-gal staining in swine muscles 5 days following injection of the various DNA and excipients solutions.
Each pig received a total of 6 injections. All injections administered in the longissimus dorsi muscle (3/side). Injections were approximately 2.5″ lateral to the spine. On each side of the pig, one site was located at approximately the last rib, and the two others were at approximately 6″ and 12″ cranial (towards the nose) from the last rib. Hair was clipped in an area approximately 1″ square to aid identification of injection sites. Injections were made in the center of each shaved area, at approximately 90′ angle to the skin surface. The pigs were restrained briefly in a self-locking head catch chute and the test article administered IM using a 1.5″ long 18 gauge needle attached to a 3 ml syringe. Each test article (treatment) was administered in a total of 3 injection sites (each on a different pig). The total volume of each injection was 1 ml.
Pigs were euthanized 5 days following administration of the respective DNA and excipient solution. A section of tissue approximately 1″ cubed, surrounding the point of entry of the needle, was excised. […] The amount of staining was determined by visual observation using a subjective scale from “No Staining” through a gradation to “Yes++++”. […]

Turning to `CCCCCCCCCC1OCCO1` [SEPA solution, 2-n-Nonyl-1,3-dioxolane], the “DNA uptake by swine muscle cells, as indicated by tissue staining” value (“DNA uptake by swine muscle cells” for short) was “enhanced DNA uptake”.

Take `C[S+](C)[O-]` [20% Dimethyl sulfoxide, dimethyl sulfoxide]: the “DNA uptake by swine muscle cells” value is “enhanced DNA uptake”.

For `OC[C@H]1O[C@@](CO)(O[C@H]2O[C@H](CO)[C@@H](O)[C@H](O)[C@H]2O)[C@@H](O)[C@@H]1O` [5% Sucrose, sucrose], the “DNA uptake by swine muscle cells” value is “enhanced DNA uptake”.
